Assay results from US8735406B2, “8-oxodihydropurine derivative” (Dainippon Sumitomo Pharma Co., Ltd., priority 2009, dated 2014).
Where two headings read alike, the source gives them in different places.

Target: T1, FAAH (Rattus norvegicus, UniProt P97612)
T1 construct: Preparation of Rat Brain Membranes Preparations (FAAH Enzyme Solution); from tissue; host or cells: rat cerebrum (brain membrane preparation)
T1 sequence (P97612 1-579): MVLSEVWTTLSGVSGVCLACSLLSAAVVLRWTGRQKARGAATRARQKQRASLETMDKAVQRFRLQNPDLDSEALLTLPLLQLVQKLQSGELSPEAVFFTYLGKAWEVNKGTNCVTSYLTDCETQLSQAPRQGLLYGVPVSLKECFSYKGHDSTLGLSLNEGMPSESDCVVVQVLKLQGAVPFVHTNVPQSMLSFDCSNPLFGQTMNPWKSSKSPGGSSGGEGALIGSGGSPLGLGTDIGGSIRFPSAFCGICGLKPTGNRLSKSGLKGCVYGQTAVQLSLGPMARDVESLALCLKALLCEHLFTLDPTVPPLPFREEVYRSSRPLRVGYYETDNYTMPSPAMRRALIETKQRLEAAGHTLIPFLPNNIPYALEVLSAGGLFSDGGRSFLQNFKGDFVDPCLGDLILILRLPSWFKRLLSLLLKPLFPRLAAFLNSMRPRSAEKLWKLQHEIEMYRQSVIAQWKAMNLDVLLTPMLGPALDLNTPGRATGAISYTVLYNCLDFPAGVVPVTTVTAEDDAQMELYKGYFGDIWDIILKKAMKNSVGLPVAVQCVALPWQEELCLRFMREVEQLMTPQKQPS
Experiment: Determination of FAAH inhibitory activity in rat (rat brain membrane preparations, [3H]-anandamide hydrolysis)
Type: biochemical
Conditions: for IC50: read-out: FAAH Inhibition IC50
How it was run: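 Compounds tested from 0.1 nM to 1 μM to derive IC50 against FAAH hydrolysis in rat brain membrane preparations (100 μg/mL). A 10-min 37 °C preincubation was followed by 10 min with [3H]-anandamide (2 nM) mixed with 2 μM unlabelled anandamide. Radioactive ethanolamine was extracted into the water/methanol layer and counted.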

[1] = rat brain membrane preparations, 100 nM test substance, read-out: FAAH Inhibition, Inhibition Rate at 100 nM
[2] = rat brain membrane preparations, test substance 0.1 nM to 1 μM

CCN(C)C(=O)n1c(=O)n(C)c2nc(Cc3cccc(OC)c3)ncc21 [Example 277, N-Ethyl-2-(3-methoxybenzyl)-N,9-dimethyl-8-oxo-8,9-dihydro-7H-purine-7-carboxamide]
inhibition at 0.1 µM [1]: 96% | IC50 [2]: 7 nM

Cn1c(=O)n(C(=O)N2CCC2)c2nc(-c3ccc(OCC(F)F)cc3)ncc21 [compound 368]
inhibition at 0.1 µM [1]: 99% | IC50 [2]: 17 nM

COCc1ncc2c(n1)n(C)c(=O)n2C(=O)N1CC(c2ccc(OCc3ccccc3)cc2)C1 [Example 456, 7-({3-[4-(Benzyloxy)phenyl]azetidin-1-yl}carbonyl)-2-(methoxymethyl)-9-methyl-7,9-dihydro-8H-purine-8-one]
inhibition at 0.1 µM [1]: 99% | IC50 [2]: 1 nM

COCc1ncc2c(n1)n(C)c(=O)n2C(=O)N1CC[C@H](Oc2cccc(Cl)c2)C1 [Example 490, 7-{[(3S)-3-(3-Chlorophenoxy)pyrrolidin-1-yl]carbonyl}-2-(methoxymethyl)-9-methyl-7,9-dihydro-8H-purine-8-one]
inhibition at 0.1 µM [1]: 97% | IC50 [2]: 2 nM

CN(C)C(=O)n1c(=O)n(C)c2cnc(COc3cccc(Cl)c3)nc21 [Example 414]
inhibition at 0.1 µM [1]: 84% | IC50 [2]: 64 nM

CCCCc1ncc2c(n1)n(C)c(=O)n2C(=O)N(C)CCc1ccc(Cl)cc1 [Example 155, 2-Butyl-N-[2-(4-chlorophenyl)ethyl]-N,9-dimethyl-8-oxo-8,9-dihydro-7H-purine-7-carboxamide]
inhibition at 0.1 µM [1]: 102% | IC50 [2]: 4 nM

CN(CCC1CCCCC1)C(=O)n1c(=O)n(C)c2nc(-c3ccncc3)ncc21 [Example 223, N-(2-Cyclohexylethyl)-N,9-dimethyl-8-oxo-2-(pyridin-4-yl)-8,9-dihydro-7H-purine-7-carboxamide]
inhibition at 0.1 µM [1]: 105% | IC50 [2]: < 1 nM

CCOc1ccc(-c2ncc3c(n2)n(C(=O)N2CCC2)c(=O)n3C)cc1 [compound 347]
inhibition at 0.1 µM [1]: 72% | IC50 [2]: 61 nM

CCCn1c(=O)n(C(=O)N2CCCC2)c2cnc(-c3ccccc3)nc21 [Example 304, 2-Phenyl-9-propyl-7-(pyrrolidin-1-ylcarbonyl)-7,9-dihydro-8H-purine-8-one]
inhibition at 0.1 µM [1]: 100% | IC50 [2]: 9 nM

COc1cccc(-c2ncc3c(n2)n(C)c(=O)n3C(=O)N2CCC(Cc3ccccc3)CC2)c1 [Example 66, 7-[(4-Benzylpiperidin-1-yl)carbonyl]-2-(3-methoxyphenyl)-9-methyl-7,9-dihydro-8H-purine-8-one]
inhibition at 0.1 µM [1]: 93% | IC50 [2]: 46 nM

COc1cncc(-c2ncc3c(n2)n(C(=O)N2CCCC2)c(=O)n3C)c1 [Example 251]
inhibition at 0.1 µM [1]: 28% | IC50 [2]: > 100 nM

CN(C)C(=O)n1c(=O)n(C)c2cnc(CCc3ccc(OC4CCC4)cc3)nc21 [compound 531]
inhibition at 0.1 µM [1]: 80% | IC50 [2]: 30 nM

Cn1c(=O)n(C(=O)N2CCC2)c2cnc(-c3ccccc3)nc21 [Example 23, 7-(Azetidin-1-ylcarbonyl)-9-methyl-2-phenyl-7,9-dihydro-8H-purine-8-one]
inhibition at 0.1 µM [1]: 102% | IC50 [2]: 5 nM

CCn1c(=O)n(C(=O)N(C)C)c2nc(CCc3cccc(F)c3)ncc21 [Example 644, 7-Ethyl-2-[2-(3-fluorophenyl)ethyl]-N,N-dimethyl-8-oxo-7,8-dihydro-9H-purine-9-carboxamide]
inhibition at 0.1 µM (at 100 nM, rat brain membrane preparations, read-out: FAAH Inhibition Inhibition Rate at 100 nM): 95% | IC50 (rat brain membrane preparations): 10 nM

CCN(C)C(=O)n1c(=O)n(C)c2cnc(CCc3ccc(F)cc3)nc21 [compound 555]
inhibition at 0.1 µM [1]: 48% | IC50 [2]: 106 nM

CN(C)C(=O)n1c(=O)n(C)c2cnc(CCc3ccc(F)cc3F)nc21 [Example 506, 2-[2-(2,4-Difluorophenyl)ethyl]-N,N,7-trimethyl-8-oxo-7,8-dihydro-9H-purine-9-carboxamide]
inhibition at 0.1 µM [1]: 94% | IC50 [2]: 28 nM

Cn1c(=O)n(C(=O)N2CCCC2)c2nc(Cc3c(F)cccc3F)ncc21 [Example 298, 2-(2,6-Difluorobenzyl)-7-methyl-9-(pyrrolidin-1-ylcarbonyl)-7,9-dihydro-8H-purine-8-one]
inhibition at 0.1 µM [1]: 98% | IC50 [2]: 48 nM

Cn1c(=O)n(C(=O)N2CCCC2)c2cnc(/C=C/c3cccc(C(F)(F)F)c3)nc21 [compound 10]
inhibition at 0.1 µM [1]: 23% | IC50 [2]: > 100 nM

COc1cccc(-c2ncc3c(n2)n(C)c(=O)n3C(=O)N2CCN(Cc3ccc(C(F)(F)F)cc3)CC2)c1 [Example 89, 2-(3-Methoxyphenyl)-9-methyl-7-({4-[4-(trifluoromethyl)benzyl]piperazin-1-yl}carbonyl)-7,9-dihydro-8H-purine-8-one]
IC50 [2]: 44 nM | inhibition at 0.1 µM (read-out: FAAH Inhibition, Inhibition Rate at 100 nM): 92%
